From US9512128B2 (BAYER CROPSCIENCE AG, priority 2012, dated 2016)
Read-outs that look alike come from different tables or passages of the source.

Assay: log P by HPLC on reversed-phase columns (C 18), EEC directive 79/831 Annex V.A8
Format: physicochemical
Details: for logP[a]: method [a]; for logP[b]: method [b]
Method: The log P values were determined according to EEC directive 79/831 Annex V.A8 by HPLC (High Performance Liquid Chromatography) on reversed-phase columns (C 18), using the methods below:
[a] The LC-MS determination in the acidic range is carried out at pH 2.7 with 0.1% aqueous formic acid and acetonitrile (contains 0.1% formic acid) as mobile phases; linear gradient from 10% acetonitrile to 95% acetonitrile.
[b] The LC-MS determination in the neutral range is carried out at pH 7.8 using the mobile phases 0.001 molar aqueous ammonium bicarbonate solution and acetonitrile; linear gradient from 10% acetonitrile to 95% acetonitrile.

[1] = reversed-phase C18 HPLC column, pH 2.7, acidic range, pH 2.7, 0.1% aqueous formic acid / acetonitrile, read-out: log P[a]
[2] = reversed-phase C18 HPLC column, pH 2.7, method [a], read-out: logP[a]
[3] = reversed-phase C18 HPLC column, pH 7.8, method [b], read-out: logP[b]
[4] = reversed-phase C18 HPLC column, pH 7.8, neutral range, pH 7.8, 0.001 molar aqueous ammonium bicarbonate / acetonitrile, read-out: log P[b]
[5] = acidic range, pH 2.7, 0.1% aqueous formic acid / acetonitrile, read-out: log P[a]
[6] = neutral range, pH 7.8, 0.001 molar aqueous ammonium bicarbonate / acetonitrile, read-out: log P[b]

Cc1cc(C)c(-n2cnc3scnc3c2=O)cc1SCC(F)(F)F [Compound 62]
logP[a]: 2.67 | logP[b]: 2.64

Cc1ccc(-n2cnc3sccc3c2=O)cc1SCC(F)(F)F [Compound 83, 3-{4-Methyl-3-[(2,2,2-trifluoroethyl)sulphanyl]phenyl}thieno[2,3-d]pyrimidin-4(3H)-one]
chromatographic logP [1]: 3.04 | chromatographic logP [2]: 3.09 | chromatographic logP [3]: 3.01 | chromatographic logP [4]: 3.02

Cc1cc(F)c(N)cc1[S+]([O-])CC(F)(F)F (stereo not shown) [IVb-1, 2-Fluoro-4-methyl-5-[(2,2,2-trifluoroethyl)sulphinyl]aniline]
chromatographic logP [1]: 1.77 | chromatographic logP [4]: 1.72

Cc1c2c(=O)n(-c3ccc(Cl)c(SCC(F)(F)F)c3)cnc2nn1C [Compound 48]
logP[a]: 2.45 | logP[b]: 2.36

O=[N+]([O-])c1cc(SSc2ccc(F)c([N+](=O)[O-])c2)ccc1F [XIX-5, 1,1′-Disulphanediylbis(4-fluoro-3-nitrobenzene)]
chromatographic logP [5]: 3.83 | chromatographic logP [6]: 3.79

Cc1cc(F)c(-n2c(C(F)(F)F)nc3nn(C)cc3c2=O)cc1SCC(F)(F)F [Compound 42]
logP[a]: 3.27 | logP[b]: 3.19

O=c1c2ncsc2ncn1-c1cc([S+]([O-])CC(F)(F)F)c(Cl)cc1Cl (stereo not shown) [Compound 67]
logP[a]: 1.96 | logP[b]: 1.96

Cc1cc(C)c(-n2cnc3c(cnn3C)c2=O)cc1SCC(F)(F)F [Compound 7]
logP[a]: 2.79 | logP[b]: 2.73

Cn1ncc2c(=O)n(-c3ccc(C#N)c(SCC(F)(F)F)c3)cnc21 [Compound 24]
logP[a]: 2.07 | logP[b]: 2.06

Cn1ncc2c(=O)n(-c3ccc(Cl)c([S+]([O-])CC(F)(F)F)c3)cnc21 (racemic) [Compound 28]
logP[a]: 1.80 | logP[b]: 1.80

Cc1cc(C)c(-n2c(C)nc3c(cnn3C)c2=O)cc1SCC(F)(F)F [Compound 6]
logP[a]: 2.92 | logP[b]: 2.86

Cc1ccc(-n2cnc3ccsc3c2=O)cc1SCC(F)(F)F [Compound 100]
logP[a]: 2.87 | logP[b]: 2.79

N#Cc1ccc(-n2cnc3sccc3c2=O)cc1SCC(F)(F)F [Compound 93]
logP[a]: 2.48 | logP[b]: 2.46

O=c1c2scnc2ncn1-c1cc([S+]([O-])CC(F)(F)F)c(Cl)cc1Cl (stereo not shown) [Compound 80]
logP[a]: 2.01 | logP[b]: 1.98

Cn1cnc2c(=O)n(-c3cc(SCC(F)(F)F)c(Cl)cc3F)cnc21 [Compound 57]
logP[a]: 2.19 | logP[b]: 2.17

O=c1c2ccsc2ncn1-c1ccc(C(F)(F)F)c(SCC(F)(F)F)c1 [Compound 94]
logP[a]: 3.27 | logP[b]: 3.21

Cc1cc(C)c([S+]([O-])CC(F)(F)F)cc1-n1c(C)nc2c(ncn2C)c1=O (racemic) [Compound 59]
logP[a]: 1.52 | logP[b]: 1.50

Cc1cc(F)c(-n2c(C(F)(F)F)nc3c(cnn3C)c2=O)cc1[S+]([O-])CC(F)(F)F (stereo not shown) [Compound 16, 5-{2-Fluoro-4-methyl-5-[(2,2,2-trifluoroethyl)sulphinyl]phenyl}-1-methyl-6-(trifluoromethyl)-1,5-dihydro-4H-pyrazolo[3,4-d]pyrimidin-4-one]
log P[a] (acidic range, pH 2.7, 0.1% aqueous formic acid / acetonitrile): 2.74 | log P[b] (neutral range, pH 7.8, 0.001 molar aqueous ammonium bicarbonate / acetonitrile): 2.70 | chromatographic logP [1]: 2.67 | chromatographic logP [2]: 2.67 | chromatographic logP [3]: 2.63 | chromatographic logP [4]: 2.63

Cc1ccc(B(O)O)cc1SCC(F)(F)F [VIIIa-7, {4-Methyl-3-[(2,2,2-trifluoroethyl)sulphanyl]phenyl}boronic acid]
chromatographic logP [1]: 2.3 | chromatographic logP [4]: 2.24

Cc1nc2c(=O)n(-c3cc(SCC(F)(F)F)c(Cl)cc3Cl)cnc2s1 [Compound 71]
logP[a]: 3.09 | logP[b]: 3.02

O=c1c2ccsc2ncn1-c1cc(SCC(F)(F)F)c(Cl)cc1Cl [Compound 90]
logP[a]: 3.51 | logP[b]: 3.42

O=[N+]([O-])c1ccc(Cl)c(SSc2cc([N+](=O)[O-])ccc2Cl)c1 [XIX-3, 1,1′-Disulphanediylbis(2-chloro-5-nitrobenzene)]
chromatographic logP [5]: 5.03 | chromatographic logP [6]: 5.01

Cc1ccc(Br)cc1SCC(F)(F)F [VIIa-7, 5-Bromo-2-methylphenyl-2,2,2-trifluoroethyl sulphide]
chromatographic logP [1]: 4.29 | chromatographic logP [4]: 4.26

Nc1ccc(Cl)c(SCC(F)(F)F)c1 [IVa-3, 4-Chloro-3-[(2,2,2-trifluoroethyl)sulphanyl]aniline]
chromatographic logP [1]: 2.64 | chromatographic logP [4]: 2.69

Cc1nn(C)c2ncn(-c3ccc(C(F)(F)F)c(SCC(F)(F)F)c3)c(=O)c12 [Compound 31]
logP[a]: 3.06 | logP[b]: 2.99

Cc1cc(C)c(-n2cnc3c(ncn3C)c2=O)cc1SCC(F)(F)F [Compound 55]
logP[a]: 2.28 | logP[b]: 2.23

O=c1c2sccc2ncn1-c1ccc(C(F)(F)F)c(SCC(F)(F)F)c1 [Compound 104]
logP[a]: 3.09 | logP[b]: 3.07

FC(F)(F)CSc1cc(Br)ccc1C(F)(F)F [VIIa-10, 4-Bromo-2-[(2,2,2-trifluoroethyl)sulphanyl]-1-(trifluoromethyl)benzene]
chromatographic logP [1]: 4.22 | chromatographic logP [4]: 4.2

Cc1cc(C)c([S+]([O-])CC(F)(F)F)cc1-n1cnc2c(ncn2C)c1=O (racemic) [Compound 58]
logP[a]: 1.43 | logP[b]: 1.40

Cn1ncc2c(=O)n(-c3cc([S+]([O-])CC(F)(F)F)c(Cl)cc3Cl)cnc21 (racemic) [Compound 4]
logP[a]: 2.11 | logP[b]: 2.09

O=[N+]([O-])c1cc(SSc2ccc(Cl)c([N+](=O)[O-])c2)ccc1Cl [XIX-4, 1,1′-Disulphanediylbis(4-chloro-3-nitrobenzene)]
chromatographic logP (pH 2.7, log P[a]): 4.58 | chromatographic logP (pH 7.8, log P[b]): 4.58

Cc1cc(F)c(NC(=O)c2cnn(C)c2[N+](=O)[O-])cc1SCC(F)(F)F [N-{2-Fluoro-4-methyl-5-[(2,2,2-trifluoroethyl)sulphanyl]phenyl}-1-methyl-5-nitro-1H-pyrazole-4-carboxamide]
chromatographic logP [1]: 3.22 | chromatographic logP [4]: 3.16

FC(F)(F)CSc1cc(Br)c(Cl)cc1Cl [VIIa-6, 1-Bromo-2,4-dichloro-5-[(2,2,2-trifluoroethyl)sulphanyl]benzene]
chromatographic logP [1]: 4.8 | chromatographic logP [4]: 4.77

Cc1cc(F)c(-n2c(C)nc3c(cnn3C)c2=O)cc1SCC(F)(F)F [Compound 14, 5-{2-Fluoro-4-methyl-5-[(2,2,2-trifluoroethyl)sulphanyl]phenyl}-1,6-dimethyl-1,5-dihydro-4H-pyrazolo[3,4-d]pyrimidin-4-one]
chromatographic logP [1]: 2.84 | chromatographic logP [2]: 2.84 | chromatographic logP [3]: 2.79 | chromatographic logP [4]: 2.79

Nc1cc(SCC(F)(F)F)ccc1Cl [IVa-4, 2-Chloro-5-[(2,2,2-trifluoroethyl)sulphanyl]aniline]
chromatographic logP [1]: 3 | chromatographic logP [4]: 2.95

O=C(Nc1ccc(Cl)c(SCC(F)(F)F)c1)C(F)(F)F [Compound X-3, N-{4-Chloro-3-[(2,2,2-trifluoroethyl)sulphanyl]phenyl}-2,2,2-trifluoroacetamide]
chromatographic logP [1]: 3.46 | chromatographic logP [4]: 3.41

Cc1cc(F)c(-n2cnc3c(Cl)c(Cl)sc3c2=O)cc1SCC(F)(F)F [Compound 111]
logP[a]: 4.38 | logP[b]: 4.24

Cc1nc2c(=O)n(-c3cc([S+]([O-])CC(F)(F)F)c(Cl)cc3Cl)cnc2s1 (stereo not shown) [Compound 74]
logP[a]: 2.22 | logP[b]: 2.17

Cc1ccc(B(O)O)cc1[S+]([O-])CC(F)(F)F (stereo not shown) [VIIIb-7, {4-Methyl-3-[(2,2,2-trifluoroethyl)sulphinyl]phenyl}boronic acid]
chromatographic logP [1]: 1.41 | chromatographic logP [4]: 1.36

Cn1ncc2c(=O)n(-c3ccc(C(F)(F)F)c([S+]([O-])CC(F)(F)F)c3)cnc21 (racemic) [Compound 29]
logP[a]: 2.16 | logP[b]: 2.11

Nc1cc(SSc2ccc(F)c(N)c2)ccc1F [XVIII-5, 3,3′-Disulphanediylbis(6-fluoroaniline)]
chromatographic logP [1]: 2.98 | chromatographic logP [4]: 2.97

Nc1cc(SCC(F)(F)F)ccc1F [IVa-5, 2-Fluoro-5-[(2,2,2-trifluoroethyl)sulphanyl]aniline]
chromatographic logP [1]: 2.57 | chromatographic logP [4]: 2.53

Cc1cc(F)c(NC(=O)C(F)(F)F)cc1SCC(F)(F)F [Compound X-1, 2,2,2-Trifluoro-N-{2-fluoro-4-methyl-5-[(2,2,2-trifluoroethyl)sulphanyl]phenyl}acetamide]
chromatographic logP [1]: 3.31

N#Cc1ccc(-n2cnc3ccsc3c2=O)cc1SCC(F)(F)F [Compound 102]
logP[a]: 2.37 | logP[b]: 2.31

O=c1c2scnc2ncn1-c1cc(SCC(F)(F)F)c(Cl)cc1Cl [Compound 77]
logP[a]: 2.79 | logP[b]: 2.76

Cc1ccc(-n2cnc3c(c(C)nn3C)c2=O)cc1SCC(F)(F)F [Compound 30]
logP[a]: 2.81 | logP[b]: 2.73

Cc1c2c(=O)n(-c3ccc(C#N)c(SCC(F)(F)F)c3)cnc2nn1C [Compound 50]
logP[a]: 1.99 | logP[b]: 1.92

Cc1cc(C)c(-n2c(C)nc3c(ncn3C)c2=O)cc1SCC(F)(F)F [Compound 56]
logP[a]: 2.36 | logP[b]: 2.35
